PubChem BioAssay AID1845195 (Molecular Pharmacology Branch, DTP, NCI, 2023)
Values joined by “and” are separate entries in the source; they are usually repeats but may differ in a detail not shown here. Equal entries are not always repeated.

Test system: 156681-154-R-J1 tumor spheroid viability
Assay: Anticancer human tumor 156681-154-R-J1 patient-derived melanoma cell line growth inhibition
Details: spheroids with HUVEC and MSC; for viability, T/C: stronger effect = lower value
Description: Multicellular complex tumor spheroid response to DNA repair inhibitors in combination with DNA-damaging drugs
This study explores the anticancer activities of DNA-damaging drugs and inhibitors of DNA damage repair, both as single agents and in combinations. Complex tumor spheroids comprised of malignant cells, endothelial cells and mesenchymal stem cells served as an in vitro model for human solid tumors. This model system incorporates physiologically relevant features and patient-derived or established malignant cell lines with clinically relevant genetic alterations from many tumor types. Twenty-six patient-derived or established malignant cell lines were evaluated representing sarcoma, melanoma, small cell lung cancer (SCLC), non-small cell lung cancer (NSCLC), as well as bladder, ovarian and pancreatic cancers. The concentration ranges selected for each drug and investigational agent were based upon clinically achievable concentrations if the clinical Cmax of the agent was known.
Compounds. The drugs and compounds olaparib (NSC753686), talazoparib (NSC767125), berzosertib (NSC777718), elimusertib (NSC800525), nedisertib (NSC802822), VX-984 (NSC792969), AZD-1390 (NSC803789), temozolomide (NSC362856), topotecan (NSC609699), trabectedin (NSC813783), staurosporine (NSC755774), and gemcitabine (NSC613327) were obtained from the National Cancer Institute (NCI) Developmental Therapeutics Program Chemical Repository. The FDA-approved anticancer drug set is available from the Developmental Therapeutics Program at https://dtp.cancer.gov/organization/dscb/obtaining/available_plates.htm. […] The stock solutions were prepared in dimethyl sulfoxide (DMSO, Sigma-Aldrich, St. Louis, MO, cat. D2650) at 400-fold the tested concentration and stored at -70 degrees C. Prior to their use, the stock solutions were diluted in fresh medium and the final DMSO concentration in the assay was 0.25% (v/v). All drugs and investigational agents were tested over a range starting from a high concentration at or near the clinical Cmax and decreasing in half-log increments. If the clinical Cmax for an agent had not been determined, the highest concentration tested was 10 microM.
Cell Lines. The patient-derived cancer cell (PDC) lines: 156681-154-R-J1-PDC, 283228-195-R-J1-PDC, 287954-098-R-J1-PDC, 292921-168-R-J2-PDC, 349418-098-R-PDC, 425362-245-T-J1-PDC, 556581-035-R-J1-PDC, and BL0293-F563-PDC were received from the NCI Patient-Derived Models Repository (PDMR, https://pdmr.cancer.gov). The established cell lines HS-SY-2 (RRID:CVCL_8719), MPNST, and SYO-1 (RRID:CVCL_7146) were obtained from the Sloan Kettering Institute. The alveolar soft parts sarcoma cell line ASPS-1 (RRID:CVCL_S738) was established at the NCI and grown from internal seed stocks. The following established cell lines were purchased from the American Type Culture Collection (ATCC, Manassas, VA): G-401 (ATCC, cat. CRL-1441, RRID:CVCL_0270), SW982 (ATCC, cat. HTB-93, RRID:CVCL_1734), VA-ES-BJ (ATCC, cat. CRL-2138, RRID:CVCL_1785), NCI-H719 (ATCC, cat. CRL-5837, RRID:CVCL_1582), NCI-H196 (ATCC, cat. CRL-5823, RRID:CVCL_1509), NCI-H841 (ATCC, cat. CRL-5845, RRID:CVCL_1595), NCI-H1618 (ATCC, cat. CRL-5879, RRID:CVCL_1480), NCI-H1876 (ATCC, cat. CRL-5902, RRID:CVCL_1503), DMS 114 (ATCC, cat. CRL-2066; RRID:CVCL_1174), NCI-H211 (ATCC, cat. CRL-5824; RRID:CVCL_1529), and SW 1271 (ATCC, cat. CRL-2177, RRID:CVCL_1716). The small cell lung cancer cell line COR-L88 was purchased from Sigma-Aldrich (cat. 92031917-1VL, RRID:CVCL_1141). The non-small cell lung cancer cell lines NCI-H226 (RRID:CVCL_1544) and NCI-H322M (RRID:CVCL_1557) were established at the NCI and grown from internal seed stocks. Pooled donor human umbilical vein endothelial cells (HUVEC, Lonza, cat. CC-2519) and human mesenchymal stem cells (hMSC, Lonza, cat. PT-2501) were purchased from Lonza (Walkersville, MD).
Cell Culture. All cells were maintained in an incubator at 37 degrees C and 5% CO2 with 95% humidity. […]

[1] = compound alone, run of 10/17/2019
[2] = compound alone, run of 10/25/2019
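Further: spheroids exposed to compounds for 7 days before readout.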
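Wherever viability, T/C is given: percent of vehicle control viability where 100% = DMSO-treated spheroids.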

Compound	viability, T/C (compound 0.0316 µM)	viability, T/C (compound 0.1 µM)	viability, T/C (compound 0.316 µM)	viability, T/C (compound 1 µM)	viability, T/C (compound 3.16 µM)	viability, T/C (compound 10 µM)	IC50 (curve of compound)	viability, T/C (compound 0.00949 µM)	viability, T/C (compound 0.0949 µM)	viability, T/C (compound 0.3 µM)	viability, T/C (compound 0.949 µM)	viability, T/C (compound 3 µM)	other results
CC(C)n1c(=O)n(C)c2cnc3cc(F)c(-c4ccc(OCCCN5CCCCC5)nc4)cc3c21	106% and 92.3% and 88.9%	101% (2×) and 102%	97.7% and 98.2% and 112%	100% and 106% and 96.7%	98.3% and 109% (2×)	78.9% and 100% and 96.5%	> 10000 nM						
CC1COCCN1c1cc(-c2ccnn2C)c2ccnc(-c3ccn[nH]3)c2n1 (centres undefined)	83.8% and 68.1% and 84.5%	77.6% and 66% and 75.6%	37.2% and 34.3% and 47.2%	30.1% and 21.7% and 29.9%	31.1% and 24.6% and 29.9%	25.2% and 20.8% and 22.6%	220 nM and 179 nM and 286 nM						
CC[C@@]1(O)C(=O)OCc2c1cc1n(c2=O)Cc2cc3c(CN(C)C)c(O)ccc3nc2-1								85.4% [middle of 10 runs]	22.1% [middle of 10 runs]	31.3% [middle of 10 runs]			IC50 [1]: 39.5 nM [middle of 5 runs]; IC50 [2]: 45.2 nM [middle of 5 runs]
CNCc1ccc(-c2cc(-c3nc(-c4ccc(S(=O)(=O)C(C)C)cc4)cnc3N)on2)cc1							1290 nM and 931 nM and 1170 nM	96.4% and 93.6% and 109%	95.8% and 90.1% and 96.7%	89% and 71.3% and 84.3%	59.4% and 53.5% and 57.1%	24.5% and 15.9% and 19.6%	viability, T/C (compound 0.03 µM): 103% and 118% and 115%
COc1cc(C)[nH]c(=O)c1CN1CCc2c(Cl)cc(C(OC)C3COC3)c(Cl)c2C1=O (centres undefined)	84.3% and 79.3% and 103%	96.4% and 99.4% and 110%	99% and 102% and 105%	91.7% and 88.1% and 112%	86% and 95.8% and 122%	107% and 93% and 118%	> 10000 nM						
COc1cc2c(cc1O)CCNC21CSC2c3c(OC(C)=O)c(C)c4c(c3C(COC1=O)N1C(O)C3Cc5cc(C)c(OC)c(O)c5C(C21)N3C)OCO4 (centres undefined)													viability, T/C (compound 30 pM): 95.8% [middle of 10 runs]; viability, T/C (compound 94.9 pM): 101% [middle of 10 runs]; viability, T/C (compound 0.0003 µM): 80.7% [middle of 10 runs]; viability, T/C (compound 0.000949 µM): 4.41% [middle of 10 runs]; viability, T/C (compound 0.003 µM): 0.17% [middle of 9 runs]; IC50 [2]: 0.477 nM [middle of 10 runs]
COc1ccc([C@@H](O)c2cc(-c3ncnc4cc(N5CCOCC5)ccc34)c(F)cc2Cl)nn1	95.2% and 80.1% and 80.3%	99.7% and 89.8% and 88%	88% and 84.6% and 86.1%	71.3% and 63.9% and 76.9%	59.8% and 60.9% and 55.3%	46.2% and 62.8% and 43.4%	7330 nM and > 10000 nM and 5220 nM						
Cc1cc(C)c(CNC(=O)c2cc(-c3ccc(CN4CCOCC4)cc3)cc3c2cnn3C2CCCC2)c(=O)[nH]1	80.8% and 92.1% and 108%	101% and 82.4% and 85.2%	85.4% and 99.5% and 97.3%	97.1% and 73% and 93.2%	90.4% and 89.8% and 92.5%	90% and 87.1% and 91.1%	> 10000 nM						
Cc1sc2c(c1C)C(c1ccc(Cl)cc1)=NC(CC(=O)Nc1ccc(O)cc1)c1nnc(C)n1-2 (centres undefined)							1920 nM and 1730 nM and > 3000 nM	77.1% and 103% and 87%	83.7% and 95.2% and 98%	70% and 80.3% and 96.3%	70.8% and 58.4% and 64.4%	38.2% and 42.2% and 73%	viability, T/C (compound 0.03 µM): 89.1% and 92% and 94.1%
Cn1ncnc1[C@H]1c2n[nH]c(=O)c3cc(F)cc(c23)N[C@@H]1c1ccc(F)cc1							1330 nM and 993 nM and 1500 nM	69.9% and 99.2% and 102%	79.2% and 71.3% and 86.4%	71.5% and 69% and 85.9%	67.1% and 59.8% and 73.4%	8.93% and 21.2% and 16.4%	viability, T/C (compound 0.03 µM): 71.1% and 90.5% and 84.6%
Cn1nnc2c(C(N)=O)ncn2c1=O				90.8% [middle of 10 runs]									viability, T/C (compound 31.6 µM): 57.1% [middle of 10 runs]; IC50 [1]: 81000 nM and > 100000 nM and 72600 nM
O=C(c1cc(Cc2n[nH]c(=O)c3ccccc23)ccc1F)N1CCN(C(=O)C2CC2)CC1							> 30000 nM		84% and 87.4% and 95%	82.5% and 83.7% and 107%	103% and 85.3% and 77.8%	64.4% and 72.5% and 82.7%	viability, T/C (compound 9.49 µM): 62.2% and 60.3% and 65.8%; viability, T/C (compound 30 µM): 50.7% and 52.9% and 63.1%
[2H]c1nc(C)nc([2H])c1-c1cc(NC[C@@H](C)c2cccc3c(C(=O)NC)ccnc23)ncn1	84.5% and 81.3% and 110%	98.4% and 80% and 94.7%	91.8% and 92.6% and 92.1%	86.1% and 87.3% and 89.5%	91.8% and 77.7% and 88.6%	86.8% and 70% and 99.2%	> 10000 nM						
